In patent US12503448B2, “Antibacterial and antiparasitic quinoxaline-2,3-diamine derivatives” (University College Cardiff Consultants Limited, priority 2019, dated 2025):
Values after ≈ are worked out from the molar mass of the structure shown. Like-named read-outs stand apart in the source and are kept apart here.

Columns and labels:
S. mansoni schistosomula = assay: 72 hours schistosomula drug screen; format: cell-based, Schistosoma mansoni; details: for Selectivity Index Schistosomula: HepG2 CC50 over schistosomula EC50; for EC50: Schistosoma mansoni
In short: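 Newly transformed S. mansoni schistosomula were screened for 72 h in 384-well format. Phenotype and motility were scored, and a schistosomula average was derived.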

MRSA EM RSA = assay: In vitro antibacterial activity; format: cell-based; details: Staphylococcus aureus
Source text: In vitro Determination of Antibacterial Activity
Scientific Reports 8 (1), 2018. Bacterial strains of Enterococcus faecalis—ATCC 29212, NCTC 12201, ATCC 51299; Streptococcus pneumoniae—ATCC 49619, 18778, 21394, 21395; Haemophilus influenza—ATCC 49766, 18391, 17428; Staphylococcus aureus—NCTC 12493, ATCC BAA-077, ATCC 700698, 11051; used for testing the compounds, as previously described in “Clinical laboratory testing and in vitro diagnostics test systems—Susceptibility testing of infectious agents and evaluation of performance of antimicrobial susceptibility devices—Part 1: Reference methods for testing the in vitro activity of antimicrobial agentes against bacteria involved in infectious diseases, ISO/FDIS 20776-1:2006(E). All the procedures were carried out in a biosafety containment level 2.

[1] = Mouse pharmacokinetics, oral cassette dosing
Experimental: Non-compartmental mouse pharmacokinetics (Male C57/BL6 Mouse, Fasted; 3 mice per group) were determined after oral administration of a nominal dose of 2.5 mg/kg of these formulations in cassettes (5 compounds/group) according to the protocols employed by WuXi (https://www.wuxiapptec.com; the CRO that conducted these studies).

[2] = test system: F. hepatica newly excysted juveniles (NEJs); assay: Newly excysted juveniles (NEJs) drug screen; format: cell-based, Fasciola hepatica; design: scale not given here; details: 10 μM, 72 h; higher score indicates lower worm activity
In short: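 Italian-strain F. hepatica NEJs, 25 per well, exposed to compound at 10 μM (0.1% DMSO) for 72 h at 37 °C, 5% CO2. Each parasite scored for phenotype and motility; averaged over two replicates, higher score meaning lower worm activity.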

MRSA ATCC 33591 = assay: In vitro antibacterial activity; format: cell-based; details: Staphylococcus aureus
[3] = Semi thermodynamic solubility; details: thermodynamic from solid
MTT assay on HepG2 cells = format: cell-based; details: human
Experimental: MTT Assay on HepG2 Cells Human Hepatocyte Carcinoma (HepG2) cells (85011430, Sigma Aldrich) were used to assess the overt toxicity of these anti-infective compounds. […] A negative control (1% v/v Triton X-100; X100, Sigma-Aldrich) was also included in each screen. After addition of compounds, each plate was then incubated for a further 20 hrs before application of MTT reagent (prepared as described in Nur-[…], Bari A, Ghabbour […], Hoffmann […] Nat Prod. 2017 Jun. 23; 80(6):1900-1908 for the assessment of compound cytotoxicity using the MTT assay. […] The plate was then further incubated for 4 hrs. After incubation, each plate was blotted dry under the laminar flow to remove the MTT treated culture media. A 100 μl DMSO: isopropanol (1:1) solution was then added to each well and the plate was then subsequently incubated for 10 minutes at 37° C. Following incubation, each plate was shaken again and then absorbance measured at 570 nm. The absorbance reading was corrected based on the average value of the wells used as blank (no cells). […] The data obtained in this manner is shown in Table 1 in the columns labelled “HepG2”. […] The selectivity indexes for schistosomula and adult worms are shown in the final two columns in Table 1.

[4] = Metabolic stability in mouse liver microsomes; details: for microsomal CLint at 1 μM: liver microsomes; for half-life at 1 μM: microsomes
[5] = schistosomula, 72 hour culture, read-out: EC50 Motility
[6] = schistosomula, 72 hour culture, read-out: EC50 Phenotype
[7] = male, C57/BL6, mouse, plasma, po, 2.5 mg/kg
[8] = average of phenotype and motility, read-out: EC50 Schistosomula average
[9] = oral, nominal dose 2.5 mg/kg, cassette

Row | SMILES | Selectivity Index Schistosomula (S. mansoni schistosomula) | EC50 (S. mansoni schistosomula; [5]) | EC50 (S. mansoni schistosomula; [6]) | MIC90 (MRSA EM RSA) | AUC(0-t) [1, 7] | Cmax [1, 7] | MRT last [1, 7] | Tmax [1, 7] | Motility (M) Mean score [2] | Phenotype (P) Mean score [2] | MIC90 (MRSA ATCC 33591) | EC50 (S. mansoni schistosomula; [8]) | solubility thermodynamic [3] | microsomal CLint at 1 μM [4] | half-life at 1 μM [4] | also measured
1 | O=[N+]([O-])c1ccc2nc(Nc3ccc(F)c(C(F)(F)F)c3)c(Nc3ccc(F)c(C(F)(F)F)c3)nc2c1 [Compound 7, N^2, N^3-bis(4-fluoro-3-(trifluoromethyl)phenyl)-6-nitroquinoxaline-2,3-diamine] | 14 | 540 nM | 540 nM | 7.81 µg/mL (≈ 14.8 µM) | 89.6 ng·h/mL | 21.2 ng/mL | 4.75 h | 4 h | 4.56 | 5.00 | < 3.91 µg/mL | – | – | – | – | –
2 | O=[N+]([O-])c1ccc2nc(Nc3ccc(C(F)(F)F)cc3)c(Nc3ccc(C(F)(F)F)cc3)nc2c1 [Compound 11, 6-nitro-N^2, N^3-bis(4-(trifluoromethyl)phenyl)quinoxaline-2,3-diamine] | 33 | 530 nM | 420 nM | 3.91 µg/mL (≈ 7.93 µM) | 419 ng·h/mL | 68.8 ng/mL | 6.5 h | 4 h | 4.17 | 4.28 | < 3.91 µg/mL | 480 nM | 32.8 µM (≈ 16.2 µg/mL) | 0.134 µL/min/mg | 172 h | CC50 at 24 h (MTT assay on HepG2 cells): 15600 nM; half-life ([1]; male, C57/BL6, mouse, in vivo, po, 2.5 mg/kg): 3.74 h; AUC(0-inf) [1, 7]: 444 ng·h/mL; MRT inf [1, 7]: 7.84 h; AUCExtra [1, 9]: 1.82%; AUMCExtra [1, 9]: 6.77%
3 | O=[N+]([O-])c1ccc2nc(Nc3cccc(Cl)c3)c(Nc3cccc(Cl)c3)nc2c1 [Compound 5, N^2, N^3-bis(3-chlorophenyl)-6-nitroquinoxaline-2,3-diamine] | 5 | 1300 nM | 1220 nM | 3.91 µg/mL (≈ 9.17 µM) | – | – | – | – | 4.20 | 4.70 | 3.91 µg/mL (≈ 9.17 µM) | – | – | – | – | –
4 | COc1ccc(Nc2nc3ccc([N+](=O)[O-])cc3nc2Nc2ccc(OC)c(C(F)(F)F)c2)cc1C(F)(F)F [Compound 12, N^2, N^3-bis(4-methoxy-3-(tritluoromethyl)phenyl)-6-nitroquinoxaline-2,3-diamine] | 9 | 650 nM | 570 nM | 31.2 µg/mL (≈ 56.5 µM) | 77.8 ng·h/mL | 20.1 ng/mL | 4.76 h | 4 h | 4.45 | 4.70 | 31.2 µg/mL (≈ 56.5 µM) | 610 nM | 4.09 µM (≈ 2.26 µg/mL) | 10.8 µL/min/mg | 2.13 h | fraction unbound (Plasma protein binding): 0.0134
